Reference: PubChem BioAssay (NCI)
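The compound was tested at five concentrations on cells cultured in 96-well plates, with a 48-hour exposure period. Definition used: TGI = concentration required for complete inhibition of growth.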

Key:
Experiment in all cases: DTP human tumour cell line panel, 48 h
SF-268 CNS = test system: SF-268 CNS
IGROV1 ovarian = test system: IGROV1 ovarian
OVCAR-5 ovarian = test system: OVCAR-5 ovarian
SF-295 CNS = test system: SF-295 CNS
DU-145 prostate = test system: DU-145 prostate
SW-620 colon = test system: SW-620 colon
MDA-MB-435 = test system: MDA-MB-435
MOLT-4 leukemia = test system: MOLT-4 leukemia
U251 CNS = test system: U251 CNS
SNB-19 CNS = test system: SNB-19 CNS
KM12 colon = test system: KM12 colon
HT29 colon = test system: HT29 colon
A549 NSCLC = test system: A549 NSCLC
UO-31 renal = test system: UO-31 renal
LOX IMVI melanoma = test system: LOX IMVI melanoma
SR leukemia = test system: SR leukemia

SMILES	TGI (SF-268 CNS) [µM]	TGI (IGROV1 ovarian) [µM]	TGI (OVCAR-5 ovarian) [µM]	TGI (SF-295 CNS) [µM]	TGI (DU-145 prostate) [µM]	TGI (SW-620 colon) [µM]	TGI (MDA-MB-435) [µM]	TGI (MOLT-4 leukemia) [µM]	TGI (U251 CNS) [µM]	TGI (SNB-19 CNS) [µM]	TGI (KM12 colon) [µM]	TGI (HT29 colon) [µM]	TGI (A549 NSCLC) [µM]	TGI (UO-31 renal) [µM]	TGI (LOX IMVI melanoma) [µM]	TGI (SR leukemia) [µM]
CS(=O)(=O)c1nc(-c2cc3c(c(S(C)(=O)=O)n2)CCC3)cc2c1CCCCC2	92.2	63.7	> 100	> 100	> 100	> 100	> 100	> 100	> 100	> 100	> 100	> 100	> 100	> 100	> 100	
O=C1NC2ON=C(c3ccccc3)C2C2ON=C(c3ccccc3)N12 (stereo not given)	> 100	> 100	> 100	> 100	> 100					> 100	> 100	> 100	> 100	> 100	> 100	
C/C(CC(=O)Nc1ccc([N+](=O)[O-])cc1)=N\NC(N)=O	> 100	> 100	> 100	> 100		> 100		> 100	> 100	> 100	> 100	> 100	> 100	> 100	> 100	45.8
NC(=O)N/N=C(\CC1OC(=O)c2ccccc21)c1ccco1 (stereo not given)	> 100	> 100	> 100	> 100		> 100		> 100		> 100	> 100	> 100	> 100	> 100	> 100	
CC(=O)OC1COC(n2c(O)c(N=NC(N)=S)c3cc(Br)ccc32)C(OC(C)=O)C1OC(C)=O (stereo not given)	> 100	> 100	> 100	> 100		> 100		> 100	> 100	> 100	> 100	> 100	> 100		> 100	> 100
CCOC(=O)NC(=O)c1cn(CCOC(=O)CCCCCCCCC(=O)OCCn2cc(C(=O)NC(=O)OCC)c(=O)[nH]c2=O)c(=O)[nH]c1=O	> 100	> 100	> 100	> 100		> 100		> 100		> 100	> 100	> 100	> 100	> 100	> 100	> 100
O=c1[nH]c2cc(Cl)ccc2nc1/C(=N\O)C(O)c1cccc([N+](=O)[O-])c1 (stereo not given)		> 100	> 100	> 100		> 100		> 100		> 100	> 100	> 100	> 100	> 100	> 100	
CCCCNc1nc(C#N)c(N)s1	> 100	> 100	> 100	> 100		> 100		> 100	> 100	> 100	> 100	> 100	> 100	> 100	> 100	> 100
CNS(=O)(=O)NN(C)S(=O)(=O)c1ccccc1	> 100	> 100		> 100		> 100		> 100	> 100	> 100	> 100	> 100	> 100	> 100	> 100	> 100
CC(=O)OCC1=C(CCC#N)N2C(=O)C(NC(=O)Cc3cccs3)C2S(=O)C1 (stereo not given)	> 100	> 100	> 100	> 100		> 100		> 100	> 100	> 100	> 100	> 100	> 100	> 100	> 100	> 100
NC1=C(NC(=O)Cc2ccc(F)cc2)C(=O)c2ccccc2C1=O	> 100	59.4	> 100	> 91.6		> 100		> 100	46.8	59	> 100	> 100	> 100	> 100	31.4	> 100
C[N+](C)(C)CC(=O)N/N=C/c1oc(-c2c(O)ccc3ccccc23)c(-c2c(O)ccc3ccccc23)c1[N+](=O)[O-]	47.3	44.2	60.1	47.4	47.6	> 100		62.3	47.8	> 100	38.9	38.5	81.5	36	33.3	58.3
COc1ccc2c3c1O[C@]1(C)C34CCN(C)C(C2)C42C=C[C@@]1(OC)c1c(O)ccc(O)c12	> 100	> 100	> 100	> 100		> 100		> 100	> 100	> 100	> 100	> 100	> 100	> 100	> 100	
O=C(CSc1nnc(-c2ccc(N=Cc3ccc(Cl)cc3)cc2)o1)Nc1ccccc1[N+](=O)[O-]	> 100			> 100		> 100		> 100	> 100	> 100	> 100	> 100	> 100	> 100	> 100	> 100
O=C(Nc1ccc(Cl)cc1)NS(=O)(=O)c1coc2cc(F)ccc2c1=O	> 100	> 100	> 100	> 100		> 100	> 100	> 100	> 100	> 100	> 100	> 100	> 100	> 100	> 100	> 100
Cn1cc2ccccc2c1-c1nc(F)nc(F)n1	> 100	> 100	> 100	> 100		> 100		> 100	> 100	> 100	> 100	> 100	> 100	> 100	> 100	> 100

SMILES	TGI (SF-268 CNS) [µM]	TGI (IGROV1 ovarian) [µM]	TGI (OVCAR-5 ovarian) [µM]	TGI (SF-295 CNS) [µM]	TGI (DU-145 prostate) [µM]	TGI (SW-620 colon) [µM]	TGI (MDA-MB-435) [µM]	TGI (MOLT-4 leukemia) [µM]	TGI (U251 CNS) [µM]	TGI (SNB-19 CNS) [µM]	TGI (KM12 colon) [µM]	TGI (HT29 colon) [µM]	TGI (A549 NSCLC) [µM]	TGI (UO-31 renal) [µM]	TGI (LOX IMVI melanoma) [µM]	TGI (SR leukemia) [µM]
C=Cc1ccc(C)[n+](C[Si](C)(C)O[Si](C)(C)C)c1	> 100	> 100	> 100	> 100		> 100		> 100	> 100	> 100	> 100	> 100	> 100	> 100	> 100	> 100
CCCCCCCCCCCCCCCCCCNC(=O)C(N)Cc1ccc(OCc2ccccc2)cn1 (stereo not given)	43.4	32.6	43.1	59.1	43.4	59.4	32.5	55	35.4	42.5	35.5	31.2	42.6	32.5	41.2	
COC(=O)c1ccc(C)cc1CC1Cc2cc(C)ccc2C1=O (stereo not given)	> 100	> 100	> 100	> 100		> 100	> 100	> 100	> 100	> 100	> 100	> 100	> 100	> 100	> 100	> 100
COC(=O)N/N=C(\Cc1ccccc1)CN(C)C	> 100	> 100	> 100	> 100		> 100		> 100	> 100		> 100	> 100	> 100		> 100	
C=CCN1C(=O)C=C(c2ccccc2)n2ncc3cccc1c32	> 100	> 100	> 100	> 100	> 100	> 100		> 100	> 100	> 100	> 100	> 100	> 100	> 100	> 100	> 100
COC(=O)C(=O)C(C(=O)C(=O)Nc1ccc(F)cc1)c1nc2ccc([N+](=O)[O-])cc2[nH]c1=O (stereo not given)	> 100	> 100	> 100	> 100		> 100			> 100	> 100	> 100	> 100	> 100	> 100	> 100	> 100
COC(=O)[C@@H]1CN(C(C)=O)C(=O)N1	> 100	> 100	> 100	> 100	> 100	> 100	> 100	> 100	> 100	> 100	> 100	> 100	> 100	> 100	> 100	
C/C(=N\NS(=O)(=O)c1ccc(C)cc1)C(CN1CCCCC1)C(c1ccccc1)c1c(O)c2ccccc2oc1=O (stereo not given)	> 100	> 100	> 100	> 100		> 100			> 100	> 100	> 100	> 100	> 100	> 100	> 100	> 100
CCOC(=O)c1cccn1S(=O)(=O)c1cc(Cl)ccc1NC(=O)CC		> 100	> 100	> 100	> 100	> 100	> 100	> 100	> 100	> 100	> 100		> 100	54	> 100	
CCCCOC(=O)C1C2CCC(O2)C1C(=O)OCCCC (stereo not given)	> 100	> 100	> 100	> 100		> 22.9		> 100	> 100	> 100	> 100	> 64.2	> 100	> 100	> 60.7	
O=C1/C(=C\c2ccc(O)cc2)CCC/C1=C/c1ccc(Cl)c(Cl)c1	11.9	1.17	34.3	10.1	9.8	12	9.51	5.8	16	18.3	3.77	3.54	15	5.6	3.62	
O=C(O)c1nc2cc(C(F)(F)F)ccc2nc1Nc1ccc(F)cc1	> 100	55.9	93.5	58.4		68.8	> 100	59.8	59.5	> 100	30.3	> 100	> 100	35.8	48.5	55
COc1cc2c(oc(=O)c3c4oc([Si](C)(C)C)cc4cc(OC)c23)c2cccc(OCc3ccccc3)c12	> 70.7	> 100	> 100	50.9		> 100		> 100		64.1	> 100	> 100	> 100	> 100	> 100	> 100
C=C(C)C1=CCC[C@]2(C1)N=C(OC)[C@@H](C(C)C)N=C2OC	> 100	> 100	> 100	> 100	> 100	> 100	> 100	> 100	> 100	> 100	> 100	> 100	> 100	> 100		
c1ccc2c(c1)cc(C1NCCc3[nH]cnc31)c1ccccc12 (stereo not given)	> 100	> 100	> 100	> 100		> 60.5		61.7	> 57.7	> 100	> 100	> 100	> 100	> 100	40.7	61.1
C[C@]12CCC(=O)C=C1CC[C@@H]1[C@@H]2CC[C@]2(C)C(=O)NC(=O)C[C@@H]12	> 100	> 100	> 100	> 100		> 100		> 100	> 100	> 100	> 100	> 100	> 100	> 100	> 100	> 100
